Measurements taken from patent US4927851A, “Analogs of mevalonolactone and derivatives thereof” (Sandoz Pharm. Corp., priority 1988, dated 1990).
Counter-ions that a name gives are not always drawn.

Legend:
[1] = system: 3β-hydroxysterol synthesis; assay: Test B. In Vivo Cholesterol Biosynthesis Inhibition Test; conditions: Rattus norvegicus, po; rats, orally administered, 0.01-200 mg/kg body weight; read-out: ED50, dose producing a 50% inhibition of 3β-hydroxysterol synthesis
Experimental: Test B. In Vivo Cholesterol Biosynthesis Inhibition Test:
In this test the rats are orally administered the test substance (compound of Formula I) at dose of 0.01-200 mg/kg. body weight. The obtained ED50 is the dose of the test substance observed or calculated to produce a 50% inhibition of 3β-hydroxysterol synthesis.

HMG-CoA reductase = biological target: T1, HMG-CoA reductase (Rattus norvegicus, UniProt P51639); assay: Test A. In Vitro Microsomal Assay of HMG-CoA Reductase Inhibition; format: biochemical; conditions: test substance 0.0005-2,000 μmolar, read-out: IC50, concentration producing a 50% inhibition of HMG-CoA reductase activity
T1 construct: from tissue; host or cells: microsomes (printed); rat liver, Sprague-Dawley, by own knowledge of the cited method
T1 sequence (P51639 1-887): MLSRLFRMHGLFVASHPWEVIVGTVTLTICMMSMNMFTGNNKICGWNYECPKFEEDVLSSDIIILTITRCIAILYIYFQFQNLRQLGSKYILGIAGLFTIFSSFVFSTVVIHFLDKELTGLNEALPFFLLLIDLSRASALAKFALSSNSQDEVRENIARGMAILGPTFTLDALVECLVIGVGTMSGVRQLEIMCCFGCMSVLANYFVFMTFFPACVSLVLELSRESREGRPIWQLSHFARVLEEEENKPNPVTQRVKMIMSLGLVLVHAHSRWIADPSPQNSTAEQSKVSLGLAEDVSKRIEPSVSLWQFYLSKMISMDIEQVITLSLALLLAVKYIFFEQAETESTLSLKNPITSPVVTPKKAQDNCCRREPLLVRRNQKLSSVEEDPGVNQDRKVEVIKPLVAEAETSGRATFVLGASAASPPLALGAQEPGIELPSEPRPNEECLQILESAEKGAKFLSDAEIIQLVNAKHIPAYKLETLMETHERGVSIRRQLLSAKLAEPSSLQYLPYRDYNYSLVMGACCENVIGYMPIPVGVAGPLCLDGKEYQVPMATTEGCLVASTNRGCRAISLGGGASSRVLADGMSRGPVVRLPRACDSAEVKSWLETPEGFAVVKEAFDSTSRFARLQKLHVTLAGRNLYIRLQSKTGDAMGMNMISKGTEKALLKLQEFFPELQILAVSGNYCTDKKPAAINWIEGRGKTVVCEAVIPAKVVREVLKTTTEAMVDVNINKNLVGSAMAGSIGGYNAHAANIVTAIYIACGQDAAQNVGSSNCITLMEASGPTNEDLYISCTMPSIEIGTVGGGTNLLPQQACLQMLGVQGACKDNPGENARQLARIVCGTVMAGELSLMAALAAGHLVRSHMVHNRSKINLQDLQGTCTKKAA
Experimental: Test A. In Vitro Microsomal Assay of HMG-CoA Reductase Inhibition:
This test is carried out precisely as described in column 53 of U.S. Pat. No. 4,613,610 and on page 30 of World (PCT) Published Patent Application No. 84/02131, both of which are hereby incorporated by reference as if set forth herein in their entirety. The concentration of the test substance (compound of Formula I) in the assay system is 0.0005-2,000 μmolar. The obtained IC50 is the concentration of the test substance in the assay system observed or calculated to produce a 50% inhibition of HMG-CoA reductase activity.

Compound	ED50 [1] [mg/kg]	IC50 (HMG-CoA reductase) [nM]
CC[C@H](C)C(=O)O[C@H]1CCC=C2C=C[C@H](C)[C@H](CC[C@@H]3C[C@@H](O)CC(=O)O3)[C@H]21 [Compactin, reference compound]	3.5	
CC(C)c1oc(-c2ccccc2)c(-c2ccc(F)cc2)c1/C=C/C(O)CC(O)CC(=O)O (centres unmarked) [Example 5b]	0.35	190
CC(C)c1sc(-c2ccccc2)c(-c2ccccc2)c1/C=C/C(O)CC(O)CC(=O)O (centres unmarked) [Example 5c, sodium(E)-7-(4-phenyl-2-isopropyl-5-phenylthien-3-yl)-3,5-dihydroxy-hept-6-enoate]	0.169	28
CC(C)c1sc(C(C)C)c(-c2ccc(F)cc2)c1/C=C/C(O)CC(O)CC(=O)O (centres unmarked) [Example 8 (sodium salt)]	0.076	27
CC[C@H](C)C(=O)O[C@H]1C[C@@H](C)C=C2C=C[C@H](C)[C@H](CC[C@@H]3C[C@@H](O)CC(=O)O3)[C@H]21 [Mevinolin, reference compound]	0.41	
